Laboratory results taken from US9757456B2, “Super-saturating delivery vehicles for poorly water-soluble pharmaceutical and cosmetic active ingredients and suppression of crystallization of pharmaceutical active ingredients” (Nanologica AB, priority 2010, dated 2017).
Converted amounts (≈) assume the structure as drawn.

Experiments:
[1] = cited from earlier work
[2] = Dissolution / kinetic release of atazanavir from nanoporous silica in simulated intestine fluid (SIF); type: physicochemical
Protocol: In order to compare the concentrations of atazanavir crystallite and atazanavir in nanoporous silica, the UV absorbance scans of atazanavir in SIF with the time are shown in FIG. 1. […] The atazanavir super-saturating solutions from the nanoporous silica. […] Particularly, the super-saturating state produced from NFM-1 could be maintain for 24 hours, and the other two could maintain for 7 hours.
For nanoporous material NFM-1 loaded with ATV, the dissolution rate appears to decrease with increased particle concentration as a percentage of loaded amount. […] In the case of the highest particle concentration, a supersaturation state is maintained for 4 hours after which the dissolution decreases rapidly due to crystallization of the drug in the water bath in which the dissolution study is conducted.

[3] = cited from earlier work; remark: listed apart in the source
[4] = Solubility and release of Retinol / Retinol 50C in water; type: physicochemical; conditions: 37° C., 150 rpm, after 20 days release from a nanoporous material
Protocol: As a mesoporous silica material, AMS-6 was selected in this example, having an Ia3d cubic pore structures, and a small pore diameter (around 4 nm average). Prior to the loading, AMS-6 was thermally treated in order to increase the hydrophobic of the inner/outer surface. 10 grams of calcined AMS-6 were placed in an oven and heated at 600° C. during 12 hours. The selected active ingredient was Retinol 50C. Retinol 50C is a formulation comprising pure Retinol and an excipient namely Polisorbate 20 used as stabilizer. […] The percentage of each component in the formulation is 50% in weight.

| solubility in SIF (in words) ([2]; UV absorbance over time) | solubility at 4 h ([2]; simulated intestine fluid (SIF), fassgf or other biorelevant, thermodynamic from solid, after 4 hours, higher concentration of NFM-1-ATV particles, read-out: maximum solubility) | concentration of Retinol dissolved in water [4] | Structure (SMILES) | log P [1] | reduction in plasma concentration (Cmin) ([3]; co-administered with proton pump inhibitors) | bioavailability ([3]; in vivo) | half-life ([3]; in vivo) |
| --- | --- | --- | --- | --- | --- | --- | --- |
| very low | 0.254 µg/mL (≈ 0.36 µM) |  | COC(=O)N[C@H](C(=O)N[C@@H](Cc1ccccc1)[C@@H](O)CN(Cc1ccc(-c2ccccn2)cc1)NC(=O)[C@@H](NC(=O)OC)C(C)(C)C)C(C)(C)C [Atazanavir] | 5.20 | ≤ 78% | 60-68% | 6.5 h |
|  |  | 3400 ng/mL | CC1=C(/C=C/C(C)=C/C=C/C(C)=C/CO)C(C)(C)CCC1 [Retinol] |  |  |  |  |
